Laboratory results reported in patent publication US20250230193A1, “CYCLIC COMPOUND HAVING SELECTIVE KRAS INHIBITORY EFFECT ON HRAS AND NRAS” (CHUGAI SEIYAKU KABUSHIKI KAISHA, priority 2022, published 2025).

Key:
[1] = target: GDP-bound NRAS wild-type protein (Homo sapiens, UniProt P01111); test: Binding to NRAS by surface plasmon resonance (SPR), Single Cycle Kinetics; conditions: KD ratio, GDP-bound NRAS wild-type vs GDP-bound KRAS wild-type, SPR
[2] = target: GDP-bound HRAS wild-type protein (Homo sapiens, UniProt P01112); test: Binding to HRAS by surface plasmon resonance (SPR), Single Cycle Kinetics; conditions: KD ratio, GDP-bound HRAS wild-type vs GDP-bound KRAS wild-type, SPR
Chain of GDP-bound HRAS wild-type protein (P01112 whole entry): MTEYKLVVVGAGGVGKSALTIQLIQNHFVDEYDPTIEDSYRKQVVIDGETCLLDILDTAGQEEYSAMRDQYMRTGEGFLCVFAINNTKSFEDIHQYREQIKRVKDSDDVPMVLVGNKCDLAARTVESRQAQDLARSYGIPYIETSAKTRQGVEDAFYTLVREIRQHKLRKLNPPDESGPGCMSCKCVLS

Chain of GDP-bound NRAS wild-type protein (P01111 whole entry): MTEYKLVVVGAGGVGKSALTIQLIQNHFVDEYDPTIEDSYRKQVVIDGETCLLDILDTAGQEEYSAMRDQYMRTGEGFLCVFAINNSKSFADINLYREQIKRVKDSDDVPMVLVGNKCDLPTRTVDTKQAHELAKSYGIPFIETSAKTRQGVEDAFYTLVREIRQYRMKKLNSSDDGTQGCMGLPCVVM

| SMILES | NRAS/KRAS (ratio of KD value with respect to NRAS to KD value with respect to KRAS) [1] | HRAS/KRAS (ratio of KD value with respect to HRAS to KD value with respect to KRAS) [2] |
| --- | --- | --- |
| CCO[C@@H]1C[C@H]2C(=O)NC3(CCC3)C(=O)N(C)[C@@H](C3CCCC3)C(=O)N(C)[C@H](C(=O)N3CCOCC3)CC(=O)N(C)[C@@H](CC(F)F)C(=O)N[C@@H]([C@@H](C)CC)C(=O)N(C)CC(=O)N(C)[C@H]3CCCCCN(C3=O)[C@@H](Cc3ccc(F)cc3)C(=O)N(C)CC(=O)N[C@@H](CCc3cc(F)c(C(F)(F)F)c(F)c3)C(=O)N2C1 [PP1177] | B (a compound having 3 or more and less than 10 is denoted as B) | B (a compound having 3 or more and less than 10 is denoted as B) |
| CCO[C@@H]1C[C@H]2C(=O)NC3(CCC3)C(=O)N(C)[C@@H](C3CCCC3)C(=O)N(C)[C@H](C(=O)N3CCOCC3)CC(=O)N(C)[C@@H](CC3CC3)C(=O)N[C@@H]([C@@H](C)CC)C(=O)N(C)CC(=O)N(C)[C@H]3CCCCCN(C3=O)[C@@H](Cc3ccc(F)cc3)C(=O)N(C)CC(=O)N[C@@H](CCc3cc(F)c(C(F)(F)F)c(F)c3)C(=O)N2C1 [PP1178] | B (a compound having 3 or more and less than 10 is denoted as B) | B (a compound having 3 or more and less than 10 is denoted as B) |
| CCO[C@@H]1C[C@H]2C(=O)NC3(CCC3)C(=O)N(C)[C@@H](C3CCCC3)C(=O)N(C)[C@H](C(=O)N3CCOCC3)CC(=O)N(C)[C@@H](COC)C(=O)N[C@@H]([C@@H](C)CC)C(=O)N(C)CC(=O)N(C)[C@H]3CCCCCN(C3=O)[C@@H](Cc3ccc(F)cc3)C(=O)N(C)CC(=O)N[C@@H](CCc3cc(F)c(C(F)(F)F)c(F)c3)C(=O)N2C1 [PP1179] | B (a compound having 3 or more and less than 10 is denoted as B) | B (a compound having 3 or more and less than 10 is denoted as B) |
| CCO[C@@H]1C[C@H]2C(=O)NC3(CCC3)C(=O)N(C)[C@@H](C3CCCC3)C(=O)N(C)[C@H](C(=O)N3CCOCC3)CC(=O)N(C)[C@@H](CCOC)C(=O)N[C@@H]([C@@H](C)CC)C(=O)N(C)CC(=O)N(C)[C@H]3CCCCCN(C3=O)[C@@H](Cc3ccc(F)cc3)C(=O)N(C)CC(=O)N[C@@H](CCc3cc(F)c(C(F)(F)F)c(F)c3)C(=O)N2C1 [PP1180] | B (a compound having 3 or more and less than 10 is denoted as B) | B (a compound having 3 or more and less than 10 is denoted as B) |
| CCO[C@@H]1C[C@H]2C(=O)NC3(CCC3)C(=O)N(C)[C@@H](C3CCCC3)C(=O)N(C)[C@H](C(=O)N3CCOCC3)CC(=O)N(C)[C@@H](Cc3cccs3)C(=O)N[C@@H]([C@@H](C)CC)C(=O)N(C)CC(=O)N(C)[C@H]3CCCCCN(C3=O)[C@@H](Cc3ccc(F)cc3)C(=O)N(C)CC(=O)N[C@@H](CCc3cc(F)c(C(F)(F)F)c(F)c3)C(=O)N2C1 [PP1183] | B (a compound having 3 or more and less than 10 is denoted as B) | B (a compound having 3 or more and less than 10 is denoted as B) |
| CCO[C@@H]1C[C@H]2C(=O)NC3(CCC3)C(=O)N(C)[C@@H](C3CCCC3)C(=O)N(C)[C@H](C(=O)N3CCOCC3)CC(=O)N(C)[C@@H](Cc3ccsc3)C(=O)N[C@@H]([C@@H](C)CC)C(=O)N(C)CC(=O)N(C)[C@H]3CCCCCN(C3=O)[C@@H](Cc3ccc(F)cc3)C(=O)N(C)CC(=O)N[C@@H](CCc3cc(F)c(C(F)(F)F)c(F)c3)C(=O)N2C1 [PP1184] | B (a compound having 3 or more and less than 10 is denoted as B) | B (a compound having 3 or more and less than 10 is denoted as B) |
| CCO[C@@H]1C[C@H]2C(=O)NC3(CCC3)C(=O)N(C)[C@@H](C3CCCC3)C(=O)N(C)[C@H](C(=O)N3CCOCC3)CC(=O)N(C)[C@@H](Cc3ccccc3C#N)C(=O)N[C@@H]([C@@H](C)CC)C(=O)N(C)CC(=O)N(C)[C@H]3CCCCCN(C3=O)[C@@H](Cc3ccc(F)cc3)C(=O)N(C)CC(=O)N[C@@H](CCc3cc(F)c(C(F)(F)F)c(F)c3)C(=O)N2C1 [PP1185] | B (a compound having 3 or more and less than 10 is denoted as B) | B (a compound having 3 or more and less than 10 is denoted as B) |
| CCO[C@@H]1C[C@H]2C(=O)NC3(CCC3)C(=O)N(C)[C@@H](C3CCCC3)C(=O)N(C)[C@H](C(=O)N3CCOCC3)CC(=O)N(C)[C@@H](Cc3cccc(C#N)c3)C(=O)N[C@@H]([C@@H](C)CC)C(=O)N(C)CC(=O)N(C)[C@H]3CCCCCN(C3=O)[C@@H](Cc3ccc(F)cc3)C(=O)N(C)CC(=O)N[C@@H](CCc3cc(F)c(C(F)(F)F)c(F)c3)C(=O)N2C1 [PP1186] | B (a compound having 3 or more and less than 10 is denoted as B) | B (a compound having 3 or more and less than 10 is denoted as B) |
| CCO[C@@H]1C[C@H]2C(=O)NC3(CCC3)C(=O)N(C)[C@@H](C3CCCC3)C(=O)N(C)[C@H](C(=O)N3CCOCC3)CC(=O)N(C)[C@@H](Cc3ccc(C#N)cc3)C(=O)N[C@@H]([C@@H](C)CC)C(=O)N(C)CC(=O)N(C)[C@H]3CCCCCN(C3=O)[C@@H](Cc3ccc(F)cc3)C(=O)N(C)CC(=O)N[C@@H](CCc3cc(F)c(C(F)(F)F)c(F)c3)C(=O)N2C1 [PP1187] | B (a compound having 3 or more and less than 10 is denoted as B) | B (a compound having 3 or more and less than 10 is denoted as B) |
| CCO[C@@H]1C[C@H]2C(=O)NC3(CCC3)C(=O)N(C)[C@@H](C3CCCC3)C(=O)N(C)[C@H](C(=O)N3CCOCC3)CC(=O)N(C)[C@@H](Cc3ccc(Cl)c(Cl)c3)C(=O)N[C@@H]([C@@H](C)CC)C(=O)N(C)CC(=O)N(C)[C@H]3CCCCCN(C3=O)[C@@H](Cc3ccc(F)cc3)C(=O)N(C)CC(=O)N[C@@H](CCc3cc(F)c(C(F)(F)F)c(F)c3)C(=O)N2C1 [PP1188] | B (a compound having 3 or more and less than 10 is denoted as B) | B (a compound having 3 or more and less than 10 is denoted as B) |
| CCO[C@@H]1C[C@H]2C(=O)NC3(CCC3)C(=O)N(C)[C@@H](C3CCCC3)C(=O)N(C)[C@H](C(=O)N(C)C)CC(=O)N(C)[C@@H](C)C(=O)N[C@@H]([C@@H](C)CC)C(=O)N(C)CC(=O)N(C)[C@H]3CCCCCN(C3=O)[C@@H](Cc3ccc(F)cc3)C(=O)N(C)CC(=O)N[C@@H](CCc3cc(F)c(C(F)(F)F)c(F)c3)C(=O)N2C1 [PP1189] | B (a compound having 3 or more and less than 10 is denoted as B) | B (a compound having 3 or more and less than 10 is denoted as B) |
| CCO[C@@H]1C[C@H]2C(=O)NC3(CCC3)C(=O)N(C)[C@@H](C3CCCC3)C(=O)N(C)[C@H](C(=O)N(C)C)CC(=O)N(C)[C@@H](CC)C(=O)N[C@@H]([C@@H](C)CC)C(=O)N(C)CC(=O)N(C)[C@H]3CCCCCN(C3=O)[C@@H](Cc3ccc(F)cc3)C(=O)N(C)CC(=O)N[C@@H](CCc3cc(F)c(C(F)(F)F)c(F)c3)C(=O)N2C1 [PP1190] | B (a compound having 3 or more and less than 10 is denoted as B) | B (a compound having 3 or more and less than 10 is denoted as B) |
| CCO[C@@H]1C[C@H]2C(=O)NC3(CCC3)C(=O)N(C)[C@@H](C3CCCC3)C(=O)N(C)[C@H](C(=O)N(C)C)CC(=O)N(C)[C@@H](CC(F)F)C(=O)N[C@@H]([C@@H](C)CC)C(=O)N(C)CC(=O)N(C)[C@H]3CCCCCN(C3=O)[C@@H](Cc3ccc(F)cc3)C(=O)N(C)CC(=O)N[C@@H](CCc3cc(F)c(C(F)(F)F)c(F)c3)C(=O)N2C1 [PP1191] | A (a compound having 10 or more and less than 20 is denoted as A) | B (a compound having 3 or more and less than 10 is denoted as B) |
| CCO[C@@H]1C[C@H]2C(=O)NC3(CCC3)C(=O)N(C)[C@@H](C3CCCC3)C(=O)N(C)[C@H](C(=O)N(C)C)CC(=O)N(C)[C@@H](CC3CC3)C(=O)N[C@@H]([C@@H](C)CC)C(=O)N(C)CC(=O)N(C)[C@H]3CCCCCN(C3=O)[C@@H](Cc3ccc(F)cc3)C(=O)N(C)CC(=O)N[C@@H](CCc3cc(F)c(C(F)(F)F)c(F)c3)C(=O)N2C1 [PP1192] | B (a compound having 3 or more and less than 10 is denoted as B) | A (a compound having 10 or more and less than 20 is denoted as A) |
| CCO[C@@H]1C[C@H]2C(=O)NC3(CCC3)C(=O)N(C)[C@@H](C3CCCC3)C(=O)N(C)[C@H](C(=O)N(C)C)CC(=O)N(C)[C@@H](COC)C(=O)N[C@@H]([C@@H](C)CC)C(=O)N(C)CC(=O)N(C)[C@H]3CCCCCN(C3=O)[C@@H](Cc3ccc(F)cc3)C(=O)N(C)CC(=O)N[C@@H](CCc3cc(F)c(C(F)(F)F)c(F)c3)C(=O)N2C1 [PP1193] | B (a compound having 3 or more and less than 10 is denoted as B) | B (a compound having 3 or more and less than 10 is denoted as B) |
| CCO[C@@H]1C[C@H]2C(=O)NC3(CCC3)C(=O)N(C)[C@@H](C3CCCC3)C(=O)N(C)[C@H](C(=O)N(C)C)CC(=O)N(C)[C@@H](CCOC)C(=O)N[C@@H]([C@@H](C)CC)C(=O)N(C)CC(=O)N(C)[C@H]3CCCCCN(C3=O)[C@@H](Cc3ccc(F)cc3)C(=O)N(C)CC(=O)N[C@@H](CCc3cc(F)c(C(F)(F)F)c(F)c3)C(=O)N2C1 [PP1194] | B (a compound having 3 or more and less than 10 is denoted as B) | B (a compound having 3 or more and less than 10 is denoted as B) |
